# Assays:
# Assay in all cases: relative viability (nuclei count vs DMSO), 5 days (fraction); higher = more cells survive
# [1] = compound: COc1cc(-c2nn([C@H]3CC[C@H](N4CCN(C(C)=O)CC4)CC3)c3ncnc(N)c23)ccc1NC(=O)c1cc2ccccc2n1C + CC(=O)c1c(C)c2cnc(Nc3ccc(N4CCNCC4)cn3)nc2n(C2CCCC2)c1=O [Palbociclib] (partner 0.5 µM)
# Method in brief: (§1)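 Nuclei were stained with Hoechst during a one-step fixation (final 0.05% Triton X-100, 1% formaldehyde, 1 ug/ml Hoechst) carried out 5 days after dosing, then counted on 4× images. The cells, lung cancer lines in 1536-well plates, had been dosed by pin tool the day after seeding with one drug alone or a fixed anchor-drug dose plus five library-drug doses (not always all listed) in √10 steps. Relative viability is the nuclei count in treated wells divided by that in vehicle wells, and each value is the median of duplicate plates.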
# [2] = compound: COc1cc(-c2nn([C@H]3CC[C@H](N4CCN(C(C)=O)CC4)CC3)c3ncnc(N)c23)ccc1NC(=O)c1cc2ccccc2n1C + C[C@@H](Oc1cc(-c2cnn(C3CCNCC3)c2)cnc1N)c1c(Cl)ccc(F)c1Cl [Crizotinib] (partner 1 µM)
# Method in brief: as §1
# [3] = compound: COc1cc(-c2nn([C@H]3CC[C@H](N4CCN(C(C)=O)CC4)CC3)c3ncnc(N)c23)ccc1NC(=O)c1cc2ccccc2n1C + COc1cc2c(Oc3ccc(NC(=O)C4(C(=O)Nc5ccc(F)cc5)CC4)cc3F)ccnc2cc1OCCCN1CCOCC1 [Foretinib] (partner 0.25 µM)
# Method in brief: as §1
# Midostaurin + Alpelisib = compound: CO[C@@H]1[C@H](N(C)C(=O)c2ccccc2)C[C@H]2O[C@]1(C)n1c3ccccc3c3c4c(c5c6ccccc6n2c5c31)C(=O)NC4 [Midostaurin] + Cc1nc(NC(=O)N2CCC[C@H]2C(N)=O)sc1-c1ccnc(C(C)(C)C(F)(F)F)c1 [Alpelisib] (partner 2 µM)
# Method in brief: as §1
# Midostaurin + Dasatinib = compound: CO[C@@H]1[C@H](N(C)C(=O)c2ccccc2)C[C@H]2O[C@]1(C)n1c3ccccc3c3c4c(c5c6ccccc6n2c5c31)C(=O)NC4 [Midostaurin] + Cc1nc(Nc2ncc(C(=O)Nc3c(C)cccc3Cl)s2)cc(N2CCN(CCO)CC2)n1 [Dasatinib] (partner 0.075 µM)
# Method in brief: as §1
Cell Line,relative viability ([1]; first compound 0.0128 µM),relative viability ([1]; first compound 0.04048 µM),relative viability ([1]; first compound 0.128 µM),relative viability ([1]; first compound 1.28 µM),relative viability ([2]; first compound 0.0128 µM),relative viability ([2]; first compound 0.04048 µM),relative viability ([2]; first compound 0.128 µM),relative viability ([2]; first compound 1.28 µM),relative viability ([3]; first compound 0.0128 µM),relative viability ([3]; first compound 0.04048 µM),relative viability ([3]; first compound 0.128 µM),relative viability ([3]; first compound 1.28 µM),relative viability (Midostaurin + Alpelisib; first compound 0.01 µM),relative viability (Midostaurin + Alpelisib; first compound 0.1 µM),relative viability (Midostaurin + Alpelisib; first compound 0.3162 µM),relative viability (Midostaurin + Dasatinib; first compound 0.01 µM),relative viability (Midostaurin + Dasatinib; first compound 0.03162 µM),relative viability (Midostaurin + Dasatinib; first compound 0.1 µM),relative viability (Midostaurin + Dasatinib; first compound 0.3162 µM),relative viability (Midostaurin + Alpelisib; first compound 0.03162 µM)
LCLC-97TM1,0.22,0.194,0.241,0.191,0.364,0.409,0.359,0.519,1.06,0.692,0.864,0.887,0.251,0.185,0.211,0.822,0.798,0.827,0.968,
LCLC-103H,0.509,0.474,0.433,0.503,1.17,1.22,0.993,1.07,0.774,0.972,0.616,0.65,0.932,1.04,1.06,0.545,0.456,0.389,0.416,0.979
LK-2,0.698,0.858,0.834,0.518,0.215,0.259,0.187,0.199,1.34,1.24,1.05,0.761,1.09,1.11,1.05,0.333,0.251,0.393,0.501,1.48
LOU-NH91,0.536,0.533,0.529,0.454,0.745,0.811,0.753,0.638,0.991,0.99,0.968,0.922,0.776,0.724,0.756,0.594,0.534,0.606,0.582,0.673
LU99A,0.419,0.435,0.389,0.377,0.629,0.522,0.545,0.696,0.96,0.895,0.857,0.821,0.437,0.396,0.387,0.434,0.549,0.541,0.348,0.457
LXF-289,0.673,0.648,0.549,0.706,0.863,0.794,0.864,0.98,1.05,0.962,0.986,1.03,0.997,0.952,0.976,0.21,0.173,0.174,0.124,1.02
NCI-H23,0.47,0.519,0.508,0.4,0.534,0.533,0.458,0.376,1.22,1.03,0.797,0.651,0.739,0.339,0.602,0.88,0.659,0.559,0.523,0.517
NCI-H322M,0.426,0.516,0.434,0.394,0.999,0.871,0.767,0.878,1.03,1.11,0.878,0.785,0.836,0.882,0.807,0.272,0.233,0.258,0.332,0.686
NCI-H358,0.145,0.137,0.126,0.115,0.563,0.619,0.586,0.368,0.766,0.626,0.685,0.279,0.891,0.954,0.768,0.177,0.124,0.15,0.208,0.719
NCI-H441,0.248,0.167,0.228,0.152,0.841,0.621,0.655,0.705,1.09,1.29,0.998,0.89,0.817,0.536,0.736,0.677,0.533,0.552,0.405,0.669
NCI-H460,0.17,0.133,0.148,0.153,0.854,1.01,0.966,0.682,1,1.13,0.916,0.975,0.47,0.371,0.365,0.576,0.493,0.478,0.553,0.433
NCI-H520,0.197,0.227,0.206,0.12,0.763,0.621,0.628,0.549,0.755,0.731,0.65,0.613,0.891,0.845,0.981,0.176,0.178,0.272,0.203,0.882
NCI-H647,0.391,0.382,0.4,0.216,1.03,0.858,0.886,0.541,1.16,1.44,1.21,0.806,0.948,0.861,0.672,0.181,0.209,0.134,0.103,1.15
NCI-H650,0.35,0.385,0.3,0.339,0.665,0.716,0.603,0.739,1.02,1.24,1.07,1.02,1.04,1.11,0.63,0.401,0.406,0.385,0.315,1.07
NCI-H661,0.421,0.436,0.42,0.419,1.09,1.03,1.07,1.1,1.16,1.13,1.01,1.03,0.684,0.758,0.661,0.882,0.806,0.852,0.737,0.601
NCI-H727,0.615,,0.553,0.583,0.745,,0.626,0.587,0.915,,0.831,0.587,0.526,0.538,0.296,0.363,0.41,0.462,0.383,0.471
NCI-H838,0.222,0.208,0.216,0.181,0.809,0.854,0.759,0.534,1.01,0.989,0.973,0.604,1.02,0.865,0.407,0.237,0.282,0.292,0.288,0.772
NCI-H1355,0.448,0.402,0.416,0.415,1.15,1.07,1.06,0.946,1,0.958,0.988,0.883,0.827,0.748,0.814,0.796,0.777,0.743,0.818,0.788
NCI-H1437,0.302,0.326,0.281,0.283,1.06,0.877,0.922,0.846,1.34,1.31,1.29,1.29,1.06,0.96,0.986,0.354,0.458,0.35,0.368,0.995
NCI-H1651,0.522,0.539,0.513,0.49,0.902,0.908,0.81,0.712,0.911,0.886,0.969,0.692,1.17,0.935,0.902,0.322,0.488,0.408,0.446,0.92
NCI-H1666,0.678,0.661,0.6,0.622,0.909,0.904,0.97,0.827,0.971,0.881,0.957,0.947,1.06,0.838,0.732,0.864,0.709,0.716,0.772,0.788
NCI-H1734,0.37,0.332,0.335,0.276,0.745,0.596,0.669,0.56,0.877,0.683,0.897,0.536,0.656,0.69,0.742,0.404,0.632,0.477,0.338,0.618
NCI-H1755,0.54,0.467,0.458,0.402,1,0.795,0.875,0.616,1.02,0.87,0.833,0.885,0.921,0.75,0.694,0.413,0.447,0.436,0.343,0.912
NCI-H1915,0.578,0.441,0.495,0.44,0.87,0.942,0.866,0.869,1.14,1.03,1.06,0.844,1.04,1.06,1.06,0.359,0.334,0.29,0.331,1.02
NCI-H1944,0.352,0.32,0.363,0.203,1.12,1.14,1.02,0.787,0.87,0.786,0.832,0.61,0.799,0.887,0.946,0.222,0.227,0.234,0.222,0.908
NCI-H1975,0.534,0.541,0.513,0.23,0.869,1.18,0.966,0.424,0.887,0.912,0.918,0.481,0.613,0.575,0.38,0.381,0.374,0.326,0.296,0.628
NCI-H1993,0.616,0.58,0.617,0.605,0.925,0.902,0.803,0.645,0.747,0.743,0.784,0.556,0.714,0.675,0.643,0.65,0.608,0.668,0.419,0.657
NCI-H2009,0.172,0.148,0.219,0.179,1.09,0.94,1.04,0.906,1.22,1.12,1.22,0.896,1.24,1.05,1.16,0.33,0.268,0.254,0.21,1.01
NCI-H2023,0.436,0.358,0.318,0.293,0.587,0.736,0.592,0.412,0.802,0.804,0.717,0.535,0.608,0.526,0.583,0.585,0.691,0.539,0.443,0.563
NCI-H2085,0.491,0.48,0.455,0.441,0.86,0.912,0.977,0.695,1.12,0.876,0.834,0.691,0.961,0.907,0.788,0.29,0.273,0.26,0.236,0.9

# From the supplement of paper PMC10307832
